Assay results published in patent publication US6686209B2, “Reagents for detecting cannabinoids” (Lifepoint, Inc., priority 2001, dated 2004).

System: antibodies against Δ^9-THC
Assay: Cross-reactivity by displacement of cannabinol-based tracer from immobilized antibody (continuous flow)
Assay type: binding
Conditions: for MAX FI (mV): sample with 25 ng/mL of unlabeled substance, cannabinol-based tracer (FIG. 10) displaced, 0 ng/mL baseline 422; for percent cross-reactivity: 25 ng/mL
Description: The lower binding affinity of an antibody to a particular tracer may be measured by the percent cross-reactivity of the antibody to the tracer as compared to the analyte in a sample. For example, immobilized antibodies against Δ^9-THC were bound with the cannabinol-based tracer (shown in FIG. 10) similar to the methods as described in Example VII. Different samples containing 25 ng/mL of Δ^9-THC (unlabeled), Δ^8-THC (unlabeled), unlabeled 9-carboxy-Δ^9-THC (THCA), cannabidiol (unlabeled), or unlabeled cannabinol were flowed through different columns having the antibody-tracer complex to determine the amount of cross-reactivity. The amount of tracer displaced was then compared between the different samples.
Using Δ^9-THC as the standard (i.e., Δ^9-THC set at 100% cross-reactivity) (1602/1602)), 9-carboxy-Δ^9-THC has a percent cross-reactivity of about 540% (8700/1602), and cannabinol has a percent cross-reactivity of about 79% (1266/1602). If 9-carboxy-Δ^9-THC were used as the standard (i.e., 9-carboxy-Δ^9-THC set at 100% cross-reactivity (8700/8700)), then the percent cross-reactivity for cannabinol would be about 14.5% (1266/8700). If Δ^8-THC were used as a standard (i.e., A ^8-THC set at 100% cross-reactivity (1488/1488)), then the present cross-reactivity for cannabinol would be about 85% (1266/1488).

## C=C(C)[C@@H]1CCC(C)=C[C@H]1c1c(O)cc(CCCCC)cc1O [Cannabidiol, cannabidiol]
  MAX FI (mV): 624 mV

## CCCCCc1cc(O)c2c(c1)OC(C)(C)c1ccc(C)cc1-2 [Cannabinol, 6,6,9-trimethyl-3-pentyl-6H-dibenzo[b,d]pyran-1-ol]
9-carboxy-Δ^9-THC as the standard (100%)
  percent cross-reactivity: about 14.5%
  MAX FI (mV): 1266 mV
Δ^8-THC as the standard (100%)
  percent cross-reactivity: about 85%
Δ^9-THC as the standard (100%)
  percent cross-reactivity: about 79%

## CCCCCc1cc(O)c2c(c1)OC(C)(C)[C@@H]1CCC(C(=O)O)=C[C@@H]21 [THCA, 9-carboxy-Δ^9-THC]
  MAX FI (mV): 8700 mV
Δ^9-THC as the standard (100%)
  percent cross-reactivity: about 540%

## CCCCCc1cc(O)c2c(c1)OC(C)(C)[C@@H]1CC=C(C)C[C@@H]21 [Δ^8-THC]
  MAX FI (mV): 1488 mV

## CCCCCc1cc(O)c2c(c1)OC(C)(C)[C@@H]1CCC(C)=C[C@@H]21 [Δ^9-THC, Δ^9-tetrahydrocannabinol]
  MAX FI (mV): 1602 mV
